The target of assay [1] is human IRAK4 (Homo sapiens (Human), UniProt Q9NWZ3). The assay is described as follows: IRAK4 kinase assay (IRAK4 TR-FRET assay). Type of assay: biochemical. Conditions: 1 mM ATP. How it is done:
The IRAK4-inhibitory activity of the substances according to the invention was measured in the IRAK4 TR-FRET assay (TR-FRET=Time Resolved Fluorescence Resonance Energy Transfer) described hereinafter.
Recombinant fusion protein from N-terminal GST (glutathione S-transferase) and human IRAK4, expressed in baculovirus-infected insect cells (Hi5, BTI-TN-5B1-4, cell line purchased from Invitrogen, catalogue No. B855-02) and purified via affinity chromatography, was used as enzyme. The substrate used for the kinase reaction was the biotinylated peptide biotin-Ahx-[…] (C-terminus in amide form) which can be purchased, for example, from Biosyntan GmbH (Berlin-Buch).
For the assay, 11 different concentrations in the range from 20 μM to 0.073 nM were prepared from a 2 mM solution of the test substance in DMSO. 50 nl of the respective solution were pipetted into a black low-volume 384-well microtitre plate (Greiner Bio-One, Frickenhausen, Germany), 2 μl of a solution of IRAK4 in assay buffer [50 mM HEPES pH 7.5, 5 mM MgCl2, 1.0 mM dithiothreitol, 30 μM activated sodium orthovanadate, 0.1% (w/v) of bovine gamma-globulin (BGG) 0.04% (v/v) nonidet-P40 (Sigma)] were added and the mixture was incubated for 15 min to allow prebinding of the substances to the enzyme prior to the kinase reaction. The kinase reaction was then started by addition of 3 μl of a solution of adenosine triphosphate (ATP, 1.67 mM=final concentration in 5 μl of assay volume: 1 mM) and peptide substrate (0.83 μM=final concentration in 5 μl assay volume: 0.5 μM) in assay buffer, and the resulting mixture was incubated at 22° C. for the reaction time of 45 min. The concentration of the IRAK4 was adjusted to the respective activity of the enzyme and set such that the assay was carried out in the linear range. Typical concentrations were in the order of about 0.2 nM. The reaction was stopped by addition of 5 μl of a solution of TR-FRET detection reagents [0.1 μM streptavidin-XL665 (Cisbio Bioassays; France, catalogue No. 610SAXLG)] and 1.5 nM anti-phosphoserine antibody [Merck Millipore, “STK Antibody”, catalogue No. 35-002] and 0.6 nM LANCE EU-W1024-labelled anti-mouse-IgG antibody (Perkin-Elmer, product No. AD0077; alternatively, it is possible to use a terbium cryptate-labelled anti-mouse-IgG antibody from Cisbio Bioassays) in aqueous EDTA solution (100 mM EDTA, 0.4% [w/v] bovine serum albumin [BSA] in 25 mM HEPES pH 7.5).
The resulting mixture was incubated at 22° C. for 1 h to allow formation of a complex of the biotinylated phosphorylated substrate and the detection reagents. The amount of the phosphorylated substrate was then evaluated by measuring the resonance energy transfer from europium chelate-labelled anti-mouse-IgG antibody to streptavidin-XL665. To this end, the fluorescence emissions at 620 nm and 665 nm were measured after excitation at 350 nm in a TR-FRET measuring instrument, for example a Rubystar (BMG Labtechnologies, Offenburg, Germany) or a Viewlux (Perkin-Elmer). The ratio of the emissions at 665 nm and 622 nm was taken as a measure of the amount of phosphorylated substrate. The data were normalized (enzyme reaction without test substance=0% inhibition; all other assay components but no enzyme=100% inhibition). Typically, the test substances were tested on the same microtitre plates at 11 different concentrations in the range from 20 μM to 0.073 nM (20 μM, 5.7 μM, 1.6 μM, 0.47 μM, 0.13 μM, 38 nM, 11 nM, 3.1 nM, 0.89 nM, 0.25 nM and 0.073 nM). The dilution series were prepared prior to the assay (2 mM to 7.3 nM in 100% DMSO) by serial dilutions. The IC50 values were calculated using a 4-parameter fit.
A general note: In TR-FRET formats the signal depends on donor and acceptor labels being close together.

Assay [2] has as its system human PBMCs. The experiment in a line: In vitro LPS-induced cytokine production in human PBMCs. Format: cell-based. The conditions noted are these: 0.1 μg/ml LPS, 24 hours. How it is done: In Vitro LPS (Lipopolysaccharide)-Induced Cytokine Production in Human PBMCs (Peripheral Blood Mononuclear Cells)
The effect of the inventive compounds of the general formula (I) on induced cytokine production in human PBMCs was examined. Cytokine production was induced here by LPS, a TLR4 ligand, which leads to activation of the IRAK4-mediated signal path.
The human PBMCs were obtained from anti-coagulated human whole blood. To this end, 15 ml of Ficoll-Paque (Biochrom, Cat. No. L6115) were initially charged in Leucosep tubes and 20 ml of human blood were added. After centrifugation of the blood at 800 g for 15 min at room temperature, the plasma including the platelets was removed and discarded. The PBMCs were transferred into centrifugation tubes and made up with PBS (phosphate-buffered saline) (Gibco, Cat. No. 14190). The cell suspension was centrifuged at room temperature at 250 g for 10 min and the supernatant was discarded. The PBMCs were resuspended in complete medium (RPMI 1640, without L-glutamine (PAA, Cat. No. E15-039), 10% FCS; 50 U/ml penicillin, 50 μg/ml streptomycin (PAA, Cat. No. P11-010) and 1% L-glutamine (Sigma, Cat. No. G7513)).
The assay was also carried out in complete medium. The PBMCs were sown in 96-well plates at a cell density of 2.5×10^5 cells/well. The compounds according to the invention were subjected to serial dilution in a constant volume of 100% DMSO and used in the assay at 8 different concentrations in the range from 10 μM to 3 nM such that the final DMSO concentration was 0.4% DMSO. Prior to the actual stimulation, the cells were then pre-incubated therewith for 30 min. […] Cell viability was determined using the CellTiter-Glo luminescent assay (Promega, Cat. No. G7571 (G755/G756A)) in accordance with the manufacturer's instructions. The amount of secreted TNF-α in the cell culture supernatant was determined using the Human ProInflammatory 9-Plex Tissue Culture Kit (MSD, Cat. No. K15007B) in accordance with the instructions of the manufacturer. […]

Chain of human IRAK4 (Q9NWZ3 whole entry): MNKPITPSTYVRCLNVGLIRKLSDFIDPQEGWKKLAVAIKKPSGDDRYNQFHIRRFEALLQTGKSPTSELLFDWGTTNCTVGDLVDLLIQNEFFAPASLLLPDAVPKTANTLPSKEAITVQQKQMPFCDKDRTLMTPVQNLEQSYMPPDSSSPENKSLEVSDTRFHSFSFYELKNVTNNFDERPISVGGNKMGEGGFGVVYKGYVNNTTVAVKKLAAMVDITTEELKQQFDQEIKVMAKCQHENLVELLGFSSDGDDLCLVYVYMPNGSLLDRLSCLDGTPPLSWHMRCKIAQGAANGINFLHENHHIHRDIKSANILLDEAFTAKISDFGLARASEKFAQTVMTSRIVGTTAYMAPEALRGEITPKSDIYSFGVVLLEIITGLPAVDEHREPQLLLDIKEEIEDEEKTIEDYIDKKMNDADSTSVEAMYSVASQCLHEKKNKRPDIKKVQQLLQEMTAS

Regarding `COc1cc2nn(C3CCN(CCC(C)(C)O)CC3)cc2cc1NC(=O)c1cccc(C(F)(F)F)n1` [Example 52, N-{2-[1-(3-Hydroxy-3-methylbutyl)piperidin-4-yl]-6-methoxy-2H-indazol-5-yl}-6-(trifluoromethyl)pyridine-2-carboxamide], half-maximal inhibition in assay [1] (IC50) was put at 1 nM. Further, the “activity (secreted TNF-α, LPS-induced cytokine production in human PBMCs)” value in assay [2] is not above 1 µM.

What is called IC50 is the concentration that gives 50% inhibition. Read a high IC50 as weaker potency in that assay.

The values above are taken from patent US10435396B2, “2-substituted indazoles, methods for producing same, pharmaceutical preparations that contain same, and use of same to produce drugs” (Bayer Pharma Aktiengesellschaft, priority 2016, dated 2019).
